Assay results: patent publication US6723753B2, “Substituted n-benzyl-n-phenyl aminoalcohol compounds useful for inhibiting cholesteryl ester transfer protein activity” (Pharmacia Corporation, priority 2002, dated 2004)

Target: T1, CETP (Homo sapiens, UniProt P11597)
T1 sequence (P11597 18-493): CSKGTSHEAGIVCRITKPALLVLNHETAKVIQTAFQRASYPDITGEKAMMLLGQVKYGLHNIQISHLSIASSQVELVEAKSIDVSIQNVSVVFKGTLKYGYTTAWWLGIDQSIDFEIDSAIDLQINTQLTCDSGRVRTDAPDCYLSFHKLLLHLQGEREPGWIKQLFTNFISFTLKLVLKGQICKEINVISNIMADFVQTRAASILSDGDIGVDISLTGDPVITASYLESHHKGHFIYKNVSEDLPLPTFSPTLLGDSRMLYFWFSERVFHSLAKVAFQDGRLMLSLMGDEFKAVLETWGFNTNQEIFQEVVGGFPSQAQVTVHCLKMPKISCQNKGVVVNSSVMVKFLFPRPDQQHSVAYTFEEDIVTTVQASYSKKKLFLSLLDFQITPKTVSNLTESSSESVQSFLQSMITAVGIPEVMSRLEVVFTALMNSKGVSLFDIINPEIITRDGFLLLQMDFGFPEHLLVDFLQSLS
Assay: Assay of CETP Inhibition using Purified Components (Reconstituted Buffer Assay)
Type: biochemical
Parameters: made in house; host or cells: CHO cells (serum-free conditioned medium)
Conditions: Inhibition of CETP activity in reconstituted buffer assay; transfer of [3H]CE from HDL to LDL; read-out: IC50
Method in brief: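 Transfer of radiolabeled cholesteryl ester from HDL to LDL was run for 2 h at 37 °C in pH 7.4 Tris buffer with 1% BSA, using purified CHO-expressed human CETP. Precipitated LDL radioactivity, measured by scintillation after dextran sulfate/MgCl2 precipitation and filtration, yielded the IC50.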

Row | IC50 [nM] | Compound
1 | 4800 | CC(C)S(=O)(=O)c1cccc(N(Cc2cccc(OC(F)(F)C(F)F)c2)CC(O)C(F)(F)F)c1 (centres unmarked) [Example 482, 3-[[3-[(1-methylethyl)sulfonyl]phenyl][[3-(1,1,2,2-tetrafluoroethoxy)-phenyl]methyl]amino]-1,1,1-trifluoro-2-propanol]
2 | 2200 | O=[N+]([O-])c1ccc(S(=O)(=O)c2cccc(N(Cc3cccc(OC(F)(F)C(F)F)c3)CC(O)C(F)(F)F)c2)cc1 (centres unmarked) [Example 483]
3 | > 50000 | O=S(=O)(c1cccc(N(Cc2cccc(OC(F)(F)C(F)F)c2)CC(O)C(F)(F)F)c1)C1CCNCC1 (centres unmarked) [Example 484]
4 | 10000 | CC(=O)c1ccc(S(=O)(=O)c2cccc(N(Cc3cccc(OC(F)(F)C(F)F)c3)CC(O)C(F)(F)F)c2)cc1 (centres unmarked) [Example 486]
5 | > 50000 | CS(=O)(=O)c1ccc(S(=O)(=O)c2cccc(N(Cc3cccc(OC(F)(F)C(F)F)c3)CC(O)C(F)(F)F)c2)cc1 (centres unmarked) [Example 487]
6 | 2200 | COC(=O)COc1cccc(N(Cc2cccc(OC(F)(F)C(F)F)c2)CC(O)C(F)(F)F)c1 (centres unmarked) [Example 490]
7 | 4400 | N#CCOc1cccc(N(Cc2cccc(OC(F)(F)C(F)F)c2)CC(O)C(F)(F)F)c1 (centres unmarked) [Example 491]
8 | 1200 | CC(C)COc1cccc(N(Cc2cccc(OC(F)(F)C(F)F)c2)CC(O)C(F)(F)F)c1 (centres unmarked) [Example 492]
9 | 1800 | CCC(=O)COc1cccc(N(Cc2cccc(OC(F)(F)C(F)F)c2)CC(O)C(F)(F)F)c1 (centres unmarked) [Example 493]
10 | 1500 | CC(=O)CCCCOc1cccc(N(Cc2cccc(OC(F)(F)C(F)F)c2)CC(O)C(F)(F)F)c1 (centres unmarked) [Example 495]
11 | 1200 | COC(=O)CCCCOc1cccc(N(Cc2cccc(OC(F)(F)C(F)F)c2)CC(O)C(F)(F)F)c1 (centres unmarked) [Example 496]
12 | 42000 | O=S(=O)(CCOc1cccc(N(Cc2cccc(OC(F)(F)C(F)F)c2)CC(O)C(F)(F)F)c1)c1ccccc1 (centres unmarked) [Example 497]
13 | > 50000 | NC(=O)COc1cccc(N(Cc2cccc(OC(F)(F)C(F)F)c2)CC(O)C(F)(F)F)c1 (centres unmarked) [Example 500]
14 | 3600 | N#CCCCOc1cccc(N(Cc2cccc(OC(F)(F)C(F)F)c2)CC(O)C(F)(F)F)c1 (centres unmarked) [Example 501]
15 | 5700 | CC(Oc1cccc(N(Cc2cccc(OC(F)(F)C(F)F)c2)CC(O)C(F)(F)F)c1)C(=O)Nc1ccccc1 (centres unmarked) [Example 502]
16 | 2100 | O=C(COc1cccc(N(Cc2cccc(OC(F)(F)C(F)F)c2)CC(O)C(F)(F)F)c1)c1ccccc1 (centres unmarked) [Example 503]
17 | 1700 | COCCOc1cccc(N(Cc2cccc(OC(F)(F)C(F)F)c2)CC(O)C(F)(F)F)c1 (centres unmarked) [Example 505]
18 | 2300 | OC(CN(Cc1cccc(OC(F)(F)C(F)F)c1)c1cccc(OC2CCOCC2)c1)C(F)(F)F (centres unmarked) [Example 507]
19 | 2100 | CCCC(Oc1cccc(N(Cc2cccc(OC(F)(F)C(F)F)c2)CC(O)C(F)(F)F)c1)C(=O)OCC (centres unmarked) [Example 508]
20 | > 50000 | CN(C)CCOc1cccc(N(Cc2cccc(OC(F)(F)C(F)F)c2)CC(O)C(F)(F)F)c1 (centres unmarked) [Example 511]
21 | 6100 | CC(C)(CO)COc1cccc(N(Cc2cccc(OC(F)(F)C(F)F)c2)CC(O)C(F)(F)F)c1 (centres unmarked) [Example 512]
22 | 2100 | CC(C)(C)C(=O)COc1cccc(N(Cc2cccc(OC(F)(F)C(F)F)c2)CC(O)C(F)(F)F)c1 (centres unmarked) [Example 513]
23 | 340 | OC(CN(Cc1cccc(OC(F)(F)C(F)F)c1)c1cccc(Cc2cccc(C(F)(F)F)c2)c1)C(F)(F)F (centres unmarked) [Example 514, 3-[[[3-(1,1,2,2-tetrafluoroethoxy)phenyl]methyl][3-[[(3-trifluoromethyl)-phenyl]methyl]phenyl]amino]-1,1,1-trifluoro-2-propanol]
24 | 6600 | COCc1cccc(N(Cc2cccc(OC(F)(F)C(F)F)c2)CC(O)C(F)(F)F)c1 (centres unmarked) [Example 514C, 3-[[3(methoxymethyl)phenyl][[3-(1,1,2,2-tetrafluoroethoxy)-phenyl]methyl]amino]-1,1,1-trifluoro-2-propanol]
25 | 3000 | O=[N+]([O-])c1cccc(Cc2cccc(N(Cc3cccc(OC(F)(F)C(F)F)c3)CC(O)C(F)(F)F)c2)c1 (centres unmarked) [Example 516]
26 | 1600 | Cc1ccc(Cc2cccc(N(Cc3cccc(OC(F)(F)C(F)F)c3)CC(O)C(F)(F)F)c2)cc1 (centres unmarked) [Example 517]
27 | 790 | OC(CN(Cc1cccc(OC(F)(F)C(F)F)c1)c1cccc(Cc2cc(Cl)cc(Cl)c2)c1)C(F)(F)F (centres unmarked) [Example 518]
28 | 2500 | OC(CN(Cc1cccc(OC(F)(F)C(F)F)c1)c1cccc(Cc2ccc(F)cc2)c1)C(F)(F)F (centres unmarked) [Example 519]

Row | IC50 [nM] | Compound
29 | 30000 | CC(C)(C)c1ccc(Cc2cccc(N(Cc3cccc(OC(F)(F)C(F)F)c3)CC(O)C(F)(F)F)c2)cc1 (centres unmarked) [Example 520]
30 | 430 | Cc1cc(Cc2cccc(N(Cc3cccc(OC(F)(F)C(F)F)c3)CC(O)C(F)(F)F)c2)ccc1F (centres unmarked) [Example 521]
31 | 1400 | Cc1cc(Cc2cccc(N(Cc3cccc(OC(F)(F)C(F)F)c3)CC(O)C(F)(F)F)c2)ccc1Cl (centres unmarked) [Example 522]
32 | 770 | Cc1ccc(Cc2cccc(N(Cc3cccc(OC(F)(F)C(F)F)c3)CC(O)C(F)(F)F)c2)cc1C (centres unmarked) [Example 523]
33 | 1200 | OC(CN(Cc1cccc(OC(F)(F)C(F)F)c1)c1cccc(Cc2ccc(F)c(Cl)c2)c1)C(F)(F)F (centres unmarked) [Example 524]
34 | 760 | OC(CN(Cc1cccc(OC(F)(F)C(F)F)c1)c1cccc(Cc2cccc(Cl)c2)c1)C(F)(F)F (centres unmarked) [Example 525]
35 | 1400 | CSc1ccc(Cc2cccc(N(Cc3cccc(OC(F)(F)C(F)F)c3)CC(O)C(F)(F)F)c2)cc1 (centres unmarked) [Example 526]
36 | 580 | COc1cccc(Cc2cccc(N(Cc3cccc(OC(F)(F)C(F)F)c3)CC(O)C(F)(F)F)c2)c1 (centres unmarked) [Example 527]
37 | 49000 | O=S(=O)(Nc1cccc(N(Cc2cccc(OC(F)(F)C(F)F)c2)CC(O)C(F)(F)F)c1)c1ccccc1 (centres unmarked) [Example 529]
38 | > 50000 | Cc1cccc(S(=O)(=O)Nc2cccc(N(Cc3cccc(OC(F)(F)C(F)F)c3)CC(O)C(F)(F)F)c2)c1 (centres unmarked) [Example 530]
39 | > 50000 | O=S(=O)(Nc1cccc(N(Cc2cccc(OC(F)(F)C(F)F)c2)CC(O)C(F)(F)F)c1)c1cccc(C(F)(F)F)c1 (centres unmarked) [Example 531]
40 | > 50000 | O=[N+]([O-])c1cccc(S(=O)(=O)Nc2cccc(N(Cc3cccc(OC(F)(F)C(F)F)c3)CC(O)C(F)(F)F)c2)c1 (centres unmarked) [Example 532]
41 | > 50000 | O=S(=O)(Nc1cccc(N(Cc2cccc(OC(F)(F)C(F)F)c2)CC(O)C(F)(F)F)c1)c1ccc(F)c(Cl)c1 (centres unmarked) [Example 533]
42 | > 50000 | CC(C)S(=O)(=O)Nc1cccc(N(Cc2cccc(OC(F)(F)C(F)F)c2)CC(O)C(F)(F)F)c1 (centres unmarked) [Example 534]
43 | > 50000 | O=C(Nc1cccc(N(Cc2cccc(OC(F)(F)C(F)F)c2)CC(O)C(F)(F)F)c1)c1ccc(F)cc1 (centres unmarked) [Example 535, 4-fluoro-N-[3-[[[3-(1,1,2,2-tetrafluoroethoxy)phenyl]methyl](3,3,3-trifluoro-2-hydroxypropyl)amino]phenyl]benzamide]
44 | > 50000 | O=C(Nc1cccc(N(Cc2cccc(OC(F)(F)C(F)F)c2)CC(O)C(F)(F)F)c1)c1ccccc1 (centres unmarked) [Example 536]
45 | > 50000 | COc1cccc(C(=O)Nc2cccc(N(Cc3cccc(OC(F)(F)C(F)F)c3)CC(O)C(F)(F)F)c2)c1 (centres unmarked) [Example 537]
46 | > 50000 | CC(C)COC(=O)Nc1cccc(N(Cc2cccc(OC(F)(F)C(F)F)c2)CC(O)C(F)(F)F)c1 (centres unmarked) [Example 538]
47 | > 50000 | O=C(Nc1cccc(N(Cc2cccc(OC(F)(F)C(F)F)c2)CC(O)C(F)(F)F)c1)c1cccnc1 (centres unmarked) [Example 539]
48 | > 50000 | CC(C)C(=O)Nc1cccc(N(Cc2cccc(OC(F)(F)C(F)F)c2)CC(O)C(F)(F)F)c1 (centres unmarked) [Example 540]
49 | 970 | CC(C)CNc1cccc(N(Cc2cccc(OC(F)(F)C(F)F)c2)CC(O)C(F)(F)F)c1 (centres unmarked) [Example 541]
50 | 2400 | OC(CN(Cc1cccc(OC(F)(F)C(F)F)c1)c1cccc(NCc2ccccc2)c1)C(F)(F)F (centres unmarked) [Example 542]
51 | 2700 | OC(CN(Cc1cccc(OC(F)(F)C(F)F)c1)c1cccc(NCc2ccc(F)cc2)c1)C(F)(F)F (centres unmarked) [Example 543]
52 | 2300 | OC(CN(Cc1cccc(OC(F)(F)C(F)F)c1)c1cccc(NCc2cccc(OC(F)(F)C(F)F)c2)c1)C(F)(F)F (centres unmarked) [Example 544]
53 | > 50000 | O=C(Nc1ccc(F)cc1)Nc1cccc(N(Cc2cccc(OC(F)(F)C(F)F)c2)CC(O)C(F)(F)F)c1 (centres unmarked) [Example 545, N-(4-fluorophenyl)-N′-[3-[[[3-(1,1,2,2-tetrafluoroethoxy)phenyl]methyl]-(3,3,3-trifluoro-2-hydroxypropyl)amino]phenyl]urea]
54 | > 50000 | O=C(Nc1ccccc1)Nc1cccc(N(Cc2cccc(OC(F)(F)C(F)F)c2)CC(O)C(F)(F)F)c1 (centres unmarked) [Example 546]
55 | > 50000 | COc1cccc(NC(=O)Nc2cccc(N(Cc3cccc(OC(F)(F)C(F)F)c3)CC(O)C(F)(F)F)c2)c1 (centres unmarked) [Example 547]

Row | Compound | IC50 [nM]
56 | O=S(=O)(Nc1cccc(N(Cc2cccc(OC(F)(F)C(F)F)c2)CC(O)C(F)(F)F)c1)c1ccc(F)cc1 (centres unmarked) [Example 528, 4-fluoro-N-[3-[[[3-(1,1,2,2-tetrafluoroethoxy)phenyl]methyl](3,3,3-trifluoro-2-hydroxypropyl)amino]phenyl]benzenesulfonamide] | 43000
